Legend:
[1] = tested on: barnyardgrass (Echinochloa crus-galli); assay: Test A preemergence, visual injury rating 0-100 (0 no effect, 100 complete control); assay type: in vivo
corn (Zea mays) = assay: Test A postemergence, visual injury rating 0-100; assay type: in vivo; conditions: 0 to 100 scale
[2] = tested on: barnyardgrass (Echinochloa crus-galli); assay: Test A postemergence, visual injury rating 0-100; assay type: in vivo; conditions: 0 to 100 scale
[3] = tested on: blackgrass (Alopecurus myosuroides); assay: Test A postemergence, visual injury rating 0-100; assay type: in vivo; conditions: 0 to 100 scale
[4] = tested on: ragweed (common ragweed, Ambrosia elatior); assay: Test A postemergence, visual injury rating 0-100; assay type: in vivo; conditions: 0 to 100 scale
[5] = tested on: foxtail, giant (giant foxtail, Setaria faberii); assay: Test A postemergence, visual injury rating 0-100; assay type: in vivo; conditions: 0 to 100 scale
[6] = tested on: wheat (Triticum aestivum); assay: Test A postemergence, visual injury rating 0-100; assay type: in vivo; conditions: 0 to 100 scale
[7] = tested on: galium (catchweed bedstraw, Galium aparine); assay: Test A postemergence, visual injury rating 0-100; assay type: in vivo; conditions: 0 to 100 scale
[8] = tested on: pigweed (Amaranthus retroflexus); assay: Test A postemergence, visual injury rating 0-100; assay type: in vivo; conditions: 0 to 100 scale
[9] = tested on: ryegrass, Italian (Italian ryegrass, Lolium multiflorum); assay: Test A postemergence, visual injury rating 0-100; assay type: in vivo; conditions: 0 to 100 scale
kochia (Kochia scoparia) [10] = assay: Test A postemergence, visual injury rating 0-100; assay type: in vivo; conditions: 0 to 100 scale
rice (Oryza sativa) = assay: Test B flooded paddy test, visual rating 0-100 (0 no effect, 100 complete control); conditions: Flood, 250 g ai/ha, applied to paddy water, rated after 13 to 15 days
[11] = tested on: ragweed (common ragweed, Ambrosia elatior); assay: Test A preemergence, visual injury rating 0-100; assay type: in vivo
[12] = tested on: foxtail, giant (giant foxtail, Setaria faberii); assay: Test A preemergence, visual injury rating 0-100; assay type: in vivo
[13] = tested on: pigweed (Amaranthus retroflexus); assay: Test A preemergence, visual injury rating 0-100; assay type: in vivo
[14] = tested on: ryegrass, Italian (Italian ryegrass, Lolium multiflorum); assay: Test A preemergence, visual injury rating 0-100; assay type: in vivo
kochia (Kochia scoparia) [15] = assay: Test A preemergence, visual injury rating 0-100; assay type: in vivo
[16] = tested on: ducksalad (Heteranthera limosa); assay: Test B flooded paddy test, visual rating 0-100; conditions: Flood, 250 g ai/ha, applied to paddy water, rated after 13 to 15 days
[17] = tested on: barnyardgrass (Echinochloa crus-galli); assay: Test B flooded paddy test, visual rating 0-100; conditions: Flood, 250 g ai/ha, applied to paddy water, rated after 13 to 15 days

| Compound | Barnyardgrass plant response rating (0 to 100 scale) ([1]; 125 g ai/ha) | Corn plant response rating (corn (Zea mays); 125 g ai/ha) | Corn plant response rating (corn (Zea mays); 500 g ai/ha) | Barnyardgrass plant response rating ([2]; 125 g ai/ha) | Barnyardgrass plant response rating ([2]; 500 g ai/ha) | Blackgrass plant response rating ([3]; 125 g ai/ha) | Blackgrass plant response rating ([3]; 500 g ai/ha) | Ragweed plant response rating ([4]; 125 g ai/ha) | Ragweed plant response rating ([4]; 500 g ai/ha) | Foxtail, Giant plant response rating ([5]; 125 g ai/ha) | Foxtail, Giant plant response rating ([5]; 500 g ai/ha) | Wheat plant response rating ([6]; 125 g ai/ha) | Wheat plant response rating ([6]; 500 g ai/ha) | Galium plant response rating ([7]; 125 g ai/ha) | Galium plant response rating ([7]; 500 g ai/ha) | Pigweed plant response rating ([8]; 125 g ai/ha) | Pigweed plant response rating ([8]; 500 g ai/ha) | Ryegrass, Italian plant response rating ([9]; 125 g ai/ha) | Ryegrass, Italian plant response rating ([9]; 500 g ai/ha) | Kochia plant response rating (kochia (Kochia scoparia) [10]; 125 g ai/ha) | also measured |
| --- | --- | --- | --- | --- | --- | --- | --- | --- | --- | --- | --- | --- | --- | --- | --- | --- | --- | --- | --- | --- | --- |
| CC1=[N+]([O-])C(C(=O)Nc2cccc(F)c2F)C(c2ccc(F)c(C(F)(F)F)c2)C1 (racemic) [Compound 64] | 90 | 90 | 90 | 70 | 90 | 80 | 80 | 10 | 40 | 70 | 90 | 70 | 90 | 40 | 70 | 0 | 50 | 70 | 80 | 0 | Barnyardgrass plant response rating (0 to 100 scale) ([1]; 500 g ai/ha): 90; Kochia plant response rating (kochia (Kochia scoparia) [10]; 500 g ai/ha): 30; Rice plant response rating (0 to 100 scale) (rice (Oryza sativa)): 0; Ragweed plant response rating (0 to 100 scale) ([11]; 125 g ai/ha): 0; Ragweed plant response rating (0 to 100 scale) ([11]; 500 g ai/ha): 70; Foxtail, Giant plant response rating (0 to 100 scale) ([12]; 125 g ai/ha): 90; Foxtail, Giant plant response rating (0 to 100 scale) ([12]; 500 g ai/ha): 90; Pigweed plant response rating (0 to 100 scale) ([13]; 125 g ai/ha): 50; Pigweed plant response rating (0 to 100 scale) ([13]; 500 g ai/ha): 80; Ryegrass, Italian plant response rating (0 to 100 scale) ([14]; 125 g ai/ha): 90; Ryegrass, Italian plant response rating (0 to 100 scale) ([14]; 500 g ai/ha): 90; Kochia plant response rating (0 to 100 scale) (kochia (Kochia scoparia) [15]; 125 g ai/ha): 20; Kochia plant response rating (0 to 100 scale) (kochia (Kochia scoparia) [15]; 500 g ai/ha): 80; Ducksalad plant response rating (0 to 100 scale) [16]: 70; Barnyardgrass plant response rating (0 to 100 scale) [17]: 60 |
| CC1=[N+]([O-])C(C(=O)Nc2cccc(F)c2F)C(c2ccc(F)c(F)c2)C1 (racemic) [Compound 10] | 90 | 0 | 50 | 40 | 90 | 20 | 30 | 0 | 20 | 60 | 90 | 0 | 70 | 50 | 60 | 0 | 20 | 0 | 0 | 0 | Barnyardgrass plant response rating ([1]; 500 g ai/ha, 0 to 100 scale): 90; Kochia plant response rating (kochia (Kochia scoparia) [10]; 500 g ai/ha): 20; Rice plant response rating (0 to 100 scale) (rice (Oryza sativa)): 0; Ragweed plant response rating (0 to 100 scale) ([11]; 125 g ai/ha): 0; Ragweed plant response rating ([11]; 500 g ai/ha, 0 to 100 scale): 90; Foxtail, Giant plant response rating (0 to 100 scale) ([12]; 125 g ai/ha): 80; Foxtail, Giant plant response rating ([12]; 500 g ai/ha, 0 to 100 scale): 90; Pigweed plant response rating (0 to 100 scale) ([13]; 125 g ai/ha): 50; Pigweed plant response rating ([13]; 500 g ai/ha, 0 to 100 scale): 60; Ryegrass, Italian plant response rating (0 to 100 scale) ([14]; 125 g ai/ha): 0; Ryegrass, Italian plant response rating ([14]; 500 g ai/ha, 0 to 100 scale): 60; Kochia plant response rating (0 to 100 scale) (kochia (Kochia scoparia) [15]; 125 g ai/ha): 0; Kochia plant response rating (kochia (Kochia scoparia) [15]; 500 g ai/ha, 0 to 100 scale): 60; Ducksalad plant response rating (0 to 100 scale) [16]: 100; Barnyardgrass plant response rating (0 to 100 scale) [17]: 85 |
| CC1=[N+]([O-])C(C(=O)Nc2cccc(F)c2F)C(c2cccc(Oc3ccc(F)cc3)c2)C1 (racemic) [Compound 58] | 10 | 0 | 40 | 10 | 30 | 20 | 70 | 0 | 0 | 30 | 70 | 10 | 20 | 30 | 50 | 0 | 30 | 20 | 50 | 0 | Barnyardgrass plant response rating (0 to 100 scale) ([1]; 500 g ai/ha): 90; Kochia plant response rating (kochia (Kochia scoparia) [10]; 500 g ai/ha): 20; Rice plant response rating (0 to 100 scale) (rice (Oryza sativa)): 0; Ragweed plant response rating (0 to 100 scale) ([11]; 125 g ai/ha): 0; Ragweed plant response rating (0 to 100 scale) ([11]; 500 g ai/ha): 90; Foxtail, Giant plant response rating (0 to 100 scale) ([12]; 125 g ai/ha): 40; Foxtail, Giant plant response rating (0 to 100 scale) ([12]; 500 g ai/ha): 90; Pigweed plant response rating (0 to 100 scale) ([13]; 125 g ai/ha): 0; Pigweed plant response rating (0 to 100 scale) ([13]; 500 g ai/ha): 0; Ryegrass, Italian plant response rating (0 to 100 scale) ([14]; 125 g ai/ha): 10; Ryegrass, Italian plant response rating (0 to 100 scale) ([14]; 500 g ai/ha): 80; Kochia plant response rating (0 to 100 scale) (kochia (Kochia scoparia) [15]; 125 g ai/ha): 0; Kochia plant response rating (0 to 100 scale) (kochia (Kochia scoparia) [15]; 500 g ai/ha): 0; Ducksalad plant response rating (0 to 100 scale) [16]: 0; Barnyardgrass plant response rating (0 to 100 scale) [17]: 0 |
| CC1=[N+]([O-])C(C(=O)Nc2cccc(F)c2F)C(c2cccc(F)c2C)C1 (racemic) [Compound 78] | 90 | 0 | 50 | 70 | 80 | 50 | 70 | 0 | 60 | 80 | 90 | 40 | 60 | 60 | 60 | 0 | 20 | 10 | 50 | 20 | Barnyardgrass plant response rating (0 to 100 scale) ([1]; 500 g ai/ha): 90; Kochia plant response rating (kochia (Kochia scoparia) [10]; 500 g ai/ha): 50; Rice plant response rating (0 to 100 scale) (rice (Oryza sativa)): 0; Ragweed plant response rating (0 to 100 scale) ([11]; 125 g ai/ha): 20; Ragweed plant response rating (0 to 100 scale) ([11]; 500 g ai/ha): 70; Foxtail, Giant plant response rating (0 to 100 scale) ([12]; 125 g ai/ha): 90; Foxtail, Giant plant response rating (0 to 100 scale) ([12]; 500 g ai/ha): 90; Pigweed plant response rating (0 to 100 scale) ([13]; 125 g ai/ha): 0; Pigweed plant response rating (0 to 100 scale) ([13]; 500 g ai/ha): 80; Ryegrass, Italian plant response rating (0 to 100 scale) ([14]; 125 g ai/ha): 30; Ryegrass, Italian plant response rating (0 to 100 scale) ([14]; 500 g ai/ha): 70; Kochia plant response rating (0 to 100 scale) (kochia (Kochia scoparia) [15]; 125 g ai/ha): 10; Kochia plant response rating (0 to 100 scale) (kochia (Kochia scoparia) [15]; 500 g ai/ha): 60; Ducksalad plant response rating (0 to 100 scale) [16]: 100; Barnyardgrass plant response rating (0 to 100 scale) [17]: 75 |
| CC1=[N+]([O-])C(C(=O)Nc2cccc(F)c2F)C(c2cc(F)c(C(F)(F)F)c(F)c2)C1 (racemic) [Compound 114] | 90 | 40 | 80 | 70 | 90 | 80 | 80 | 30 | 70 | 80 | 90 | 40 | 60 | 70 | 70 | 0 | 70 | 60 | 70 | 20 | Barnyardgrass plant response rating (0 to 100 scale) ([1]; 500 g ai/ha): 90; Kochia plant response rating (kochia (Kochia scoparia) [10]; 500 g ai/ha): 70; Rice plant response rating (0 to 100 scale) (rice (Oryza sativa)): 30; Ragweed plant response rating (0 to 100 scale) ([11]; 125 g ai/ha): 80; Ragweed plant response rating (0 to 100 scale) ([11]; 500 g ai/ha): 90; Foxtail, Giant plant response rating (0 to 100 scale) ([12]; 125 g ai/ha): 90; Foxtail, Giant plant response rating (0 to 100 scale) ([12]; 500 g ai/ha): 90; Pigweed plant response rating (0 to 100 scale) ([13]; 125 g ai/ha): 50; Pigweed plant response rating (0 to 100 scale) ([13]; 500 g ai/ha): 80; Ryegrass, Italian plant response rating (0 to 100 scale) ([14]; 500 g ai/ha): 90; Kochia plant response rating (0 to 100 scale) (kochia (Kochia scoparia) [15]; 125 g ai/ha): 20; Kochia plant response rating (0 to 100 scale) (kochia (Kochia scoparia) [15]; 500 g ai/ha): 80; Ducksalad plant response rating (0 to 100 scale) [16]: 60; Barnyardgrass plant response rating (0 to 100 scale) [17]: 40 |
